Laboratory results taken from publication PMC8371461 (Frontiers in Pharmacology, 2021).

Columns and labels:
CAMK2G = biological target: T1, CAMK2G (Homo sapiens, UniProt Q13555); assay: kinome scan; type: binding; conditions: 10 µM
T1 construct: purchased DiscoverX (KINOMEscan)

CDC2L1 = biological target: T2, CDC2L1 (Homo sapiens, UniProt P21127); assay: kinome scan; type: binding; conditions: 10 µM
T2 construct: purchased DiscoverX (KINOMEscan)

IRAK3 = biological target: T3, IRAK3 (Homo sapiens, UniProt Q9Y616); assay: kinome scan; type: binding; conditions: 10 µM
T3 construct: purchased DiscoverX (KINOMEscan)
T3 sequence (Q9Y616 whole entry): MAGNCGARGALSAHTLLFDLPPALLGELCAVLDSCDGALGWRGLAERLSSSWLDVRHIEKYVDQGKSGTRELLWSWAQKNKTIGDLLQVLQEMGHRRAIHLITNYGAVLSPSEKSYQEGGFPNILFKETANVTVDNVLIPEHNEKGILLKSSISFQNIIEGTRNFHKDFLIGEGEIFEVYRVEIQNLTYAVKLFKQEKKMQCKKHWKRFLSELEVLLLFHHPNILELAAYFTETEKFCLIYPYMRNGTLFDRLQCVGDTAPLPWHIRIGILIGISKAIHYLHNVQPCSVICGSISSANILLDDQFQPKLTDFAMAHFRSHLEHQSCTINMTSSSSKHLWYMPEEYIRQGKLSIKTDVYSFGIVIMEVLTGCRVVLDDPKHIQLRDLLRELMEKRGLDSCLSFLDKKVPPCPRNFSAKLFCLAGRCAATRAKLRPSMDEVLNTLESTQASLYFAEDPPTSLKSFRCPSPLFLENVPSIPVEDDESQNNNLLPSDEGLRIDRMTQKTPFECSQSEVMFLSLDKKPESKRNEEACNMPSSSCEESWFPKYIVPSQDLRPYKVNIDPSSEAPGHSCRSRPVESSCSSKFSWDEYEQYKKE

LTK = biological target: T4, LTK (Homo sapiens, UniProt P29376); assay: kinome scan; type: binding; conditions: 10 µM
T4 construct: purchased DiscoverX (KINOMEscan)

MEK4 = biological target: T5, MEK4 (Homo sapiens, UniProt P45985); assay: kinome scan; type: binding; conditions: 10 µM
T5 construct: purchased DiscoverX (KINOMEscan)
T5 sequence (P45985 whole entry): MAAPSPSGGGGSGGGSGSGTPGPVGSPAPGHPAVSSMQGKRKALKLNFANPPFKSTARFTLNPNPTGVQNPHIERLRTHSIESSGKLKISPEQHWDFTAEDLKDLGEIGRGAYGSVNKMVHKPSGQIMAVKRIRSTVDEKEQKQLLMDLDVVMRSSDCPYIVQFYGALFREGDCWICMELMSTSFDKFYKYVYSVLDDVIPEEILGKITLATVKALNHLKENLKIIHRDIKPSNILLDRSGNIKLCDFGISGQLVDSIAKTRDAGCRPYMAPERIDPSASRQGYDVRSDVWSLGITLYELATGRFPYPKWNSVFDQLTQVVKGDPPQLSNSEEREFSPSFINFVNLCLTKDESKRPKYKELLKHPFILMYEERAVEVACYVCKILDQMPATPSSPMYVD

MST4 = biological target: T6, MST4 (Homo sapiens, UniProt Q9P289); assay: kinome scan; type: binding; conditions: 10 µM
T6 construct: purchased DiscoverX (KINOMEscan)
T6 sequence (Q9P289 whole entry): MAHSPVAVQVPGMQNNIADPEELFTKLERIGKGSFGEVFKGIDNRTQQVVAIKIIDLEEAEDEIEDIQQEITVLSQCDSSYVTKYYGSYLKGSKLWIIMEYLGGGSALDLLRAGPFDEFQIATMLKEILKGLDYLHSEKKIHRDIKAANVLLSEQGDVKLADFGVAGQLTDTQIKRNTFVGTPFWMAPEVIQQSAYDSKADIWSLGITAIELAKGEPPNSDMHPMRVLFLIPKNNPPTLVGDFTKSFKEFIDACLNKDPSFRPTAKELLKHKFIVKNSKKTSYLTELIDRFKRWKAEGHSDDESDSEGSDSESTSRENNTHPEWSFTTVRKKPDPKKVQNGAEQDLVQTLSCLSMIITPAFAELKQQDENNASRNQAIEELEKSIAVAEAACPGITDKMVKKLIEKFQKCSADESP

BRK = biological target: T7, BRK (Homo sapiens, UniProt Q13882); assay: kinome scan; type: binding; conditions: 10 µM
T7 construct: purchased DiscoverX (KINOMEscan)

MYLK2 = biological target: T8, MYLK2 (Homo sapiens, UniProt Q9H1R3); assay: kinome scan; type: binding; conditions: 10 µM
T8 construct: purchased DiscoverX (KINOMEscan)

STK33 = biological target: T9, STK33 (Homo sapiens, UniProt Q9BYT3); assay: kinome scan; type: binding; conditions: 10 µM
T9 construct: purchased DiscoverX (KINOMEscan)

KIT(V559DV654A) = biological target: T10, KIT(V559DV654A) (Homo sapiens, UniProt P10721, V559D/V654A); assay: kinome scan; type: binding; conditions: 10 µM
T10 construct: purchased DiscoverX (KINOMEscan)

CDK11 = biological target: T11, CDK11 (Homo sapiens, UniProt Q9BWU1); assay: kinome scan; type: binding; conditions: 10 µM
T11 construct: purchased DiscoverX (KINOMEscan)

[1] = tested on: Estrogen receptor alpha signaling; set-up: method as in CHEMBL1794542; conditions: reported activity, data mining; ref CHEMBL1794542; cited from earlier work
MAP3K2 = biological target: T12, MAP3K2 (Homo sapiens, UniProt Q9Y2U5); assay: kinome scan; type: binding; conditions: 10 µM
T12 construct: purchased DiscoverX (KINOMEscan)

NEK1 = biological target: T13, NEK1 (Homo sapiens, UniProt Q96PY6); assay: kinome scan; type: binding; conditions: 10 µM
T13 construct: purchased DiscoverX (KINOMEscan)

MARK4 = biological target: T14, MARK4 (Homo sapiens, UniProt Q96L34); assay: kinome scan; type: binding; conditions: 10 µM
T14 construct: purchased DiscoverX (KINOMEscan)
T14 sequence (Q96L34 whole entry): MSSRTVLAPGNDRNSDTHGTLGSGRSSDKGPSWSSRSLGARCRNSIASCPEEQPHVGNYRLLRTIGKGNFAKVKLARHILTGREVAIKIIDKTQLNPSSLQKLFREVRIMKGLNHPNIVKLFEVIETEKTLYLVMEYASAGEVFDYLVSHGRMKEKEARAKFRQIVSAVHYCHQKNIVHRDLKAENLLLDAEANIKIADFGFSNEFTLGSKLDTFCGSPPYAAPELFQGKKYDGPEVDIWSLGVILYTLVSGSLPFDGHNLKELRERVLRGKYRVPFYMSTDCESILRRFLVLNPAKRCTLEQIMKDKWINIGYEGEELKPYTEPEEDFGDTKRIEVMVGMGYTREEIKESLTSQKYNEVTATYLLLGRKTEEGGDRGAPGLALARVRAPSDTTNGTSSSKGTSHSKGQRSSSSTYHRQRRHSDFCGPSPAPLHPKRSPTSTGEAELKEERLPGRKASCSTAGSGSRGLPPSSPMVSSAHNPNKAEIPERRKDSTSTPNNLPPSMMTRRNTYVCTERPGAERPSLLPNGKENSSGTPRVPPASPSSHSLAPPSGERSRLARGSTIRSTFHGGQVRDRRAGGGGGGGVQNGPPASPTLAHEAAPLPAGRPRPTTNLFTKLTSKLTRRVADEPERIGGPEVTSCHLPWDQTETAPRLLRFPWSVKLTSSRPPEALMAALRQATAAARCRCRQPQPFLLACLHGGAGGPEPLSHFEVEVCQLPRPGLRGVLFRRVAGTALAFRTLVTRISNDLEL

ERK = ERK phosphorylation by Western blotting; type: cell-based, mouse; conditions: PSC, data not shown
From the text: It is noteworthy that, in parallel, a regulation of the ERK pathway was not confirmed at the protein level, assessed by the study of ERK phosphorylation by Western blotting (data not shown). The effects of the drug on proliferation or differentiation was next investigated in quantitative assays. The rate of cell proliferation of the PSC, assessed during five days by quantification of intracellular ATP, was not affected by the drug (Figure 2A). The CGR8 PSC line was stably transduced with a dual promoter/reporter gene construct containing a ubiquitous promoter (EF1αS) controlling the expression of Renilla Luciferase (RLuc) and also an early neural-specific promoter (Tα1), controlling the expression of Firefly Luciferase (FLuc). Then, neural differentiation was quantified by the normalized ratio between FLuc and RLuc ([Suter et al., 2009]). […] After 72 h, the cells were lysed for RLuc and FLuc luminescence measurement in the presence of their substrates, each signal being normalized with the signal obtained with the vehicle alone (DMSO).

AURKB = biological target: T15, AURKB (Homo sapiens, UniProt Q96GD4); assay: kinome scan; type: binding; conditions: 10 µM
T15 construct: purchased DiscoverX (KINOMEscan)

IGF1R = biological target: T16, IGF1R (Homo sapiens, UniProt P08069); assay: kinome scan; type: binding; conditions: 10 µM
T16 construct: purchased DiscoverX (KINOMEscan)

BRSK2 = biological target: T17, BRSK2 (Homo sapiens, UniProt Q8IWQ3); assay: kinome scan; type: binding; conditions: 10 µM
T17 construct: purchased DiscoverX (KINOMEscan)

MYO3A = biological target: T18, MYO3A (Homo sapiens, UniProt Q8NEV4); assay: kinome scan; type: binding; conditions: 10 µM
T18 construct: purchased DiscoverX (KINOMEscan)

EGFR(L858RT790M) = biological target: T19, EGFR(L858RT790M) (Homo sapiens, UniProt P00533, L858R/T790M); assay: kinome scan; type: binding; conditions: 10 µM
T19 construct: purchased DiscoverX (KINOMEscan)

MARK2 = biological target: T20, MARK2 (Homo sapiens, UniProt Q7KZI7); assay: kinome scan; type: binding; conditions: 10 µM
T20 construct: purchased DiscoverX (KINOMEscan)

RIOK3 = biological target: T21, RIOK3 (Homo sapiens, UniProt O14730); assay: kinome scan; type: binding; conditions: 10 µM
T21 construct: purchased DiscoverX (KINOMEscan)

MRCKB = biological target: T22, MRCKB (Homo sapiens, UniProt Q9Y5S2); assay: kinome scan; type: binding; conditions: 10 µM
T22 construct: purchased DiscoverX (KINOMEscan)

HIPK3 = biological target: T23, HIPK3 (Homo sapiens, UniProt Q9H422); assay: kinome scan; type: binding; conditions: 10 µM
T23 construct: purchased DiscoverX (KINOMEscan)

PRKD2 = biological target: T24, PRKD2 (Homo sapiens, UniProt Q9BZL6); assay: kinome scan; type: binding; conditions: 10 µM
T24 construct: purchased DiscoverX (KINOMEscan)
T24 sequence (Q9BZL6 whole entry): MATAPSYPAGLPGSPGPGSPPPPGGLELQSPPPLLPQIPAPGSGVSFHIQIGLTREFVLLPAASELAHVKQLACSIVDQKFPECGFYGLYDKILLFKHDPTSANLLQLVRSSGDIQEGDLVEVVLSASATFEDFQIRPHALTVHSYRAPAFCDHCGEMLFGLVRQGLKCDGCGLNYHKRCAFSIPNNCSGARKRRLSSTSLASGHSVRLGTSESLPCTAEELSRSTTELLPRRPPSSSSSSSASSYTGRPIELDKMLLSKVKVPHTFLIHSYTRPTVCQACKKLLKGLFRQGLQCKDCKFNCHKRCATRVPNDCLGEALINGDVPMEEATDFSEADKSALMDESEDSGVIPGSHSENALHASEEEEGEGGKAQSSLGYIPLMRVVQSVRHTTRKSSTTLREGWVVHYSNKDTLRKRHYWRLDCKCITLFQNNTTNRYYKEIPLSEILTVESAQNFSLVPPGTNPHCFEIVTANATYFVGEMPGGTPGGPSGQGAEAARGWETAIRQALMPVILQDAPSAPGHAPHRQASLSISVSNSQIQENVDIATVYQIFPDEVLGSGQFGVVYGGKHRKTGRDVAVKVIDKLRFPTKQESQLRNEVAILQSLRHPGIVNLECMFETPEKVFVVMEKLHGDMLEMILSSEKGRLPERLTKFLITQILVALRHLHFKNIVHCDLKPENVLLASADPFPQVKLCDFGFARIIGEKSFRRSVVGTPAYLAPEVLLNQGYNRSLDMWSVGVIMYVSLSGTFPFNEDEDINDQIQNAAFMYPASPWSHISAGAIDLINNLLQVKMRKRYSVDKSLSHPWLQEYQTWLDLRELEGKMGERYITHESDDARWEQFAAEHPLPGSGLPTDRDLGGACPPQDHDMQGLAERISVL

FAK = biological target: T25, FAK (Homo sapiens, UniProt Q05397); assay: kinome scan; type: binding; conditions: 10 µM
T25 construct: purchased DiscoverX (KINOMEscan)

MINK = biological target: T26, MINK (Homo sapiens, UniProt Q8N4C8); assay: kinome scan; type: binding; conditions: 10 µM
T26 construct: purchased DiscoverX (KINOMEscan)

PIK4CB = biological target: T27, PIK4CB (Homo sapiens, UniProt Q9UBF8); assay: kinome scan; type: binding
T27 construct: purchased DiscoverX (KINOMEscan)
T27 sequence (Q9UBF8 whole entry): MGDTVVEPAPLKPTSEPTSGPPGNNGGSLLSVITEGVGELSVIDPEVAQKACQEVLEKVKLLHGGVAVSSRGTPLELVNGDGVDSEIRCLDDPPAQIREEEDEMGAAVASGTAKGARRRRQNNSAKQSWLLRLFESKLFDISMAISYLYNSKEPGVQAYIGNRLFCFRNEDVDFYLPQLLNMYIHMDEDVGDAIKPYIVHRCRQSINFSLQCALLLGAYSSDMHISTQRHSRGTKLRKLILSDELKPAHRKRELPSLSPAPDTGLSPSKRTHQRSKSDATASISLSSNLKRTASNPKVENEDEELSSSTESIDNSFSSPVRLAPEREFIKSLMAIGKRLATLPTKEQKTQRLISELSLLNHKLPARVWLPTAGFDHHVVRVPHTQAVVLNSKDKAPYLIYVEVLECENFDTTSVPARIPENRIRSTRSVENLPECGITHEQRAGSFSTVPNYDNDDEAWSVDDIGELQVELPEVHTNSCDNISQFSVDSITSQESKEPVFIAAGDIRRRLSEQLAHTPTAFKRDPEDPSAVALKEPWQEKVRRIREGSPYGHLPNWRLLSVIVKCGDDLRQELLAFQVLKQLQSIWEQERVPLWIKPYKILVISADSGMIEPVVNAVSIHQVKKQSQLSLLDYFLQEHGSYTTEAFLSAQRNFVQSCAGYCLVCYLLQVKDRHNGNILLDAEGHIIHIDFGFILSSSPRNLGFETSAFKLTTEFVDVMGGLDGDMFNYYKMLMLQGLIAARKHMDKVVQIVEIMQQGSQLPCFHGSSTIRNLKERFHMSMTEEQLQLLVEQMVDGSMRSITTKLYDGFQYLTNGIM

STK35 = biological target: T28, STK35 (Homo sapiens, UniProt Q8TDR2); assay: kinome scan; type: binding; conditions: 10 µM
T28 construct: purchased DiscoverX (KINOMEscan)

PIK3CA(E542K) = biological target: T29, PIK3CA(E542K) (Homo sapiens, UniProt P42336, E542K); assay: kinome scan; type: binding; conditions: 10 µM
T29 construct: purchased DiscoverX (KINOMEscan)

NEK2 = biological target: T30, NEK2 (Homo sapiens, UniProt P51955); assay: kinome scan; type: binding; conditions: 10 µM
T30 construct: purchased DiscoverX (KINOMEscan)

FLT3(N841I) = biological target: T31, FLT3(N841I) (Homo sapiens, UniProt P36888, N841I); assay: kinome scan; type: binding; conditions: 10 µM
T31 construct: purchased DiscoverX (KINOMEscan)

[2] = biological target: T32, RPS6KA4(Kin.Dom.1-N-terminal) (Homo sapiens, UniProt O75676); assay: kinome scan; type: binding; conditions: 10 µM
T32 construct: RPS6KA4(Kin.Dom.1-N-terminal); purchased DiscoverX (KINOMEscan)

Abelson (Abl) = Abelson (Abl) (Homo sapiens, UniProt P00519); assay: Milano activity test; type: biochemical; conditions: wild-type Abl; for Milano activity test: up to 100 µM
Abelson (Abl), sequence (P00519 whole entry, species assumed): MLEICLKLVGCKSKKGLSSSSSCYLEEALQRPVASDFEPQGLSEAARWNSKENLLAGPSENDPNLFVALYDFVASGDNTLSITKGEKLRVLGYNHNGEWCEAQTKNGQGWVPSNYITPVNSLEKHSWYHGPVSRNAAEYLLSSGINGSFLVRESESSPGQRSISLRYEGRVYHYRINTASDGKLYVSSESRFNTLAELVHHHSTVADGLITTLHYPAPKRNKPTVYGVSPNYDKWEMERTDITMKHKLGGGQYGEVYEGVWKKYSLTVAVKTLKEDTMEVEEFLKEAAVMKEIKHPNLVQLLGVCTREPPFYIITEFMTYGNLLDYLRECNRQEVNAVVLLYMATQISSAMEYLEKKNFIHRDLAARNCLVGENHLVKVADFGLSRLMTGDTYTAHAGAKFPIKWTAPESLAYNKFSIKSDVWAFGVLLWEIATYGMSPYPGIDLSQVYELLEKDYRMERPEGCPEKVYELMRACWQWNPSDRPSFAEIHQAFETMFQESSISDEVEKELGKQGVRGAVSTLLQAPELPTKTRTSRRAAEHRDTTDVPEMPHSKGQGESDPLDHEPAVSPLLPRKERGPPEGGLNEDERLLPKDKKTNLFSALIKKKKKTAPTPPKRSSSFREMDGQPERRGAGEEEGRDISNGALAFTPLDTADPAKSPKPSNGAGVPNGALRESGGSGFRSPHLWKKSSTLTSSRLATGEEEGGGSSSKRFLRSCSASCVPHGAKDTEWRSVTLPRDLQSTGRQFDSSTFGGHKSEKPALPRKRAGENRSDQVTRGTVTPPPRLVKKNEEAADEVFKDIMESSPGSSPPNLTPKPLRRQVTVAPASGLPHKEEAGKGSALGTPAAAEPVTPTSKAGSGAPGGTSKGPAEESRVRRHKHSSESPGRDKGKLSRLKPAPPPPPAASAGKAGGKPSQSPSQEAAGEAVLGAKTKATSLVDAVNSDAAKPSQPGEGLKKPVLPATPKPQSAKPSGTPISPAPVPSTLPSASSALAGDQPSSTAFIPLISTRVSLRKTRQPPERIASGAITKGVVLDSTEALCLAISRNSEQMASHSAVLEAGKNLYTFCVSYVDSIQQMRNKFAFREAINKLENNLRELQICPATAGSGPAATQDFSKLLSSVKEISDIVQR

Cruzain = tested on: Cruzain; set-up: method as in CHEMBL1613769; conditions: reported activity, data mining; ref CHEMBL1613769; cited from earlier work

Nc1ccc(N=Nc2ccccc2)c(N)n1 [phenazopyridine, 2,6-diamino-3-(phenylazo)pyridine]
kinase inhibition (CAMK2G): 100
kinase inhibition (CDC2L1): 90
kinase inhibition (IRAK3): 71
kinase inhibition (LTK): 96
kinase inhibition (MEK4): 48
kinase inhibition (MST4): 96
kinase inhibition (BRK): 100
kinase inhibition (MYLK2): 91
kinase inhibition (STK33): 100
kinase inhibition (KIT(V559DV654A)): 87
kinase inhibition (CDK11): 90
Concentration [1]: 3.1 µM
kinase inhibition (MAP3K2): 85
kinase inhibition (NEK1): 100
kinase inhibition (MARK4): 84
regulation of the ERK pathway (ERK phosphorylation) (ERK): not confirmed
kinase inhibition (AURKB): 72
kinase inhibition (IGF1R): 100
kinase inhibition (BRSK2): 90
kinase inhibition (MYO3A): 100
kinase inhibition (EGFR(L858RT790M)): 100
kinase inhibition (MARK2): 100
remaining binding (% of control) (RIOK3): 100
kinase inhibition (MRCKB): 100
kinase inhibition (HIPK3): 98
kinase inhibition (PRKD2): 100
kinase inhibition (FAK): 96
kinase inhibition (MINK): 90
remaining kinase binding (% of control) (PIK4CB; 10 µM): 4.6
remaining binding at 10 µM (PIK4CB; read-out: % Of control): 4.6%
kinase inhibition (STK35): 93
kinase inhibition (PIK3CA(E542K)): 98
kinase inhibition (NEK2): 81
remaining binding (% of control) (FLT3(N841I)): 46
kinase inhibition [2]: 89
inhibition at 500 µM (Abelson (Abl); 500 µM, data not shown): 35%
Milano activity test (Abelson (Abl)): not inhibited
Milano activity test (Abelson (Abl); listed as Phenazopyridine): Phenazopyridine is inactive at 100 µM
Concentration (Cruzain): 20 µM
